In BindingDB's records for patent US20250289799 (Jiangsu Yahong Meditech Co., 2025):

Each compound was assayed against Ubiquitin carboxyl-terminal hydrolase 1/WD repeat-containing protein 48 (Homo sapiens, UniProt O94782+Q8TAF3) (assay: In Vitro USP1  Inhibitory Activity).
Method: Experimental Methods1) Preparation of 1× assay buffer: 1× assay buffer (modified Tris buffer) was prepared;2) Compound dilution: The compound was transferred to the assay plate by Echo.

Sequence of Ubiquitin carboxyl-terminal hydrolase 1/WD repeat-containing protein 48 (O94782 whole entry): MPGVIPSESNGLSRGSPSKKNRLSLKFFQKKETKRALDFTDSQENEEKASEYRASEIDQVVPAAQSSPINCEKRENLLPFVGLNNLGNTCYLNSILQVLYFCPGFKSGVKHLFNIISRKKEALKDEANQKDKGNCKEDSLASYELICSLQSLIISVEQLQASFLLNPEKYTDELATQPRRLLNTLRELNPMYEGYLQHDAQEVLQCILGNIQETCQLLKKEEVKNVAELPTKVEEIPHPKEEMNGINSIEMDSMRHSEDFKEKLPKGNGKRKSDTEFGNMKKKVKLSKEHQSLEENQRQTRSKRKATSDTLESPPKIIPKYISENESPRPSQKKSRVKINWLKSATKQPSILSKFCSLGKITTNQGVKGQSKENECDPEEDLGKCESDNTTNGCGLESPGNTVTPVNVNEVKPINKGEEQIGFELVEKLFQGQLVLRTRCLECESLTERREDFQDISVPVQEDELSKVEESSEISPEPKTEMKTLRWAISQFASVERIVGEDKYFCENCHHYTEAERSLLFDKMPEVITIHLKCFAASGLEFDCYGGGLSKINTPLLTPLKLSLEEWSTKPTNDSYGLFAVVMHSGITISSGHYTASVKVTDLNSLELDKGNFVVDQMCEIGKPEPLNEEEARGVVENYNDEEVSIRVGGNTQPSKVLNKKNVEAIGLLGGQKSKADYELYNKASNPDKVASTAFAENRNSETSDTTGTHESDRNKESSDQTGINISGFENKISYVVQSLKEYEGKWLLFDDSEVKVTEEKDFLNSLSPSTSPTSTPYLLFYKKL
Sequence of Ubiquitin carboxyl-terminal hydrolase 1/WD repeat-containing protein 48 (Q8TAF3 whole entry): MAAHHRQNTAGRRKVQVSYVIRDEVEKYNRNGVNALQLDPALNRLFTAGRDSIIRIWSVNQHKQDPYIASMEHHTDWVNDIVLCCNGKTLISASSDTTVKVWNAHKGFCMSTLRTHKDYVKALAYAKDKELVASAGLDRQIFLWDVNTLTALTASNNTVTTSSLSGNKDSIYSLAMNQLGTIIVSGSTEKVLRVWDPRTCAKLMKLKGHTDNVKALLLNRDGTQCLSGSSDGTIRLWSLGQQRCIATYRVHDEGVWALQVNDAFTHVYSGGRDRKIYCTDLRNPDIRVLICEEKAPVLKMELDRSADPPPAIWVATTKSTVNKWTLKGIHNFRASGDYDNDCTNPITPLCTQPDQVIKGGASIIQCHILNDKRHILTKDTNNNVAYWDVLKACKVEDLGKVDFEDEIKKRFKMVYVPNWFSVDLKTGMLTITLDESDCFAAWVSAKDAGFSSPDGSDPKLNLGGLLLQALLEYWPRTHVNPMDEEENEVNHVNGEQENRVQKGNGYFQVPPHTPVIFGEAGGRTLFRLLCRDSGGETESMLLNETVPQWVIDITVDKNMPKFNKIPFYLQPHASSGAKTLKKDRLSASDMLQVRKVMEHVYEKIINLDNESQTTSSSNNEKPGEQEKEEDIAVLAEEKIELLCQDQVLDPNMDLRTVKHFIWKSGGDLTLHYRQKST

Row | IC50 [nM] | Structure (SMILES)
1 | 51 | COc1cnc(-c2cncnc2C2CC2)nc1NCc1ccc(-c2nc(C(F)(F)F)cn2C)cc1 [US20250289799, Example 194]
2 | 243 | COc1cnc(-c2cncnc2C2CC2)nc1NCc1ccc(-c2nc(C(F)F)cn2C)cc1 [US20250289799, Example 195]
3 | 12 | Cn1cc(C(F)(F)F)nc1-c1ccc(CNc2nc(-c3cncnc3C3CC3)nc3ccoc23)cc1 [US20250289799, Example 196]
4 | 133 | Cn1cc(C(F)F)nc1-c1ccc(CNc2nc(-c3cncnc3C3CC3)nc3ccoc23)cc1 [US20250289799, Example 197]
5 | 3.2 | COc1cnc(-c2c(C)cnn2C2CC2)nc1N(C)Cc1ccc(-c2nc(C(F)(F)F)cn2C)cc1 [US20250289799, Example 198]
6 | 5.6 | COc1cnc(-c2c(C)cnn2C2CC2)nc1NCc1ccc(-c2nc(C(F)(F)F)cn2C)cc1 [US20250289799, Example 199]
7 | 2.8 | COc1cnc(-c2c(C)cnn2C(C)C)nc1N(C)Cc1ccc(-c2nc(C(F)(F)F)cn2C)cc1 [US20250289799, Example 200]
8 | 12 | COc1cnc(-c2c(C)cnn2C(C)C)nc1N(C)Cc1ccc(-n2nc(C(F)(F)F)cc2C)cc1 [US20250289799, Example 201]
9 | 3 | COc1cnc(-c2c(C)cnn2C(C)C)nc1NCc1ccc(-c2nc(C(F)(F)F)cn2C)cc1 [US20250289799, Example 202]
10 | 1.4 | C#Cc1cnc(-c2c(C)cnn2C(C)C)nc1NCc1ccc(-c2nc(C(F)(F)F)cn2C)cc1 [US20250289799, Example 203]
11 | 25 | COc1cnc(-c2c(OC)ncnc2C2CC2)nc1N(O)Cc1ccc(-c2nc(C(F)(F)F)cn2C)cc1 [US20250289799, Example 204]
12 | 43 | COc1cnc(-c2c(C)cnn2C2CC2)nc1N(O)Cc1ccc(-c2nc(C(F)(F)F)cn2C)cc1 [US20250289799, Example 205]
13 | 3.5 | COc1cnc(-c2c(OC)ncnc2C2CC2)nc1N(C#N)Cc1ccc(-c2nc(C(F)(F)F)cn2C)cc1 [US20250289799, Example 206]
14 | 3.5 | COc1cnc(-c2c(OC)ncnc2C2CC2)nc1N(C)CC12C3C4C1C1C2C3C41c1nc(C(F)(F)F)cn1C (centres undefined) [US20250289799, Example 207]
15 | 1.6 | COc1cnc(-c2c(Cl)cnn2C(C)C)nc1NCC12CCC(c3nc(C(F)(F)F)cn3C)(CC1)OC2 [US20250289799, Example 209]
16 | 6.1 | COc1cnc(-c2c(Cl)cnn2C(C)C)nc1N(C)CC12CCC(c3nc(C(F)(F)F)cn3C)(CC1)OC2 [US20250289799, Example 211]
17 | 19 | COc1cnc(-c2c(OC)ncnc2C2CC2)nc1N(C)CC12CCC(c3nc(C(F)(F)F)cn3C)(CC1)OC2 [US20250289799, Example 212]
18 | 1.4 | COc1cnc(-c2c(OC)ncnc2C2CC2)nc1NCC12C3C4C1C1C2C3C41c1nc(C(F)(F)F)cn1C1CC1 (centres undefined) [US20250289799, Example 216]

Continued, compound first:

Row | Structure (SMILES) | IC50 [nM]
19 | Cc1cc(C(F)(F)F)nn1-c1ccc(CNc2nc(-c3c(Cl)cnn3C(C)C)nc3ccoc23)cc1 [US20250289799, Example 168] | 1.2
20 | COc1cnc(-c2ccccc2C2CC2)nc1NCc1ccc(-c2nc(C(F)(F)F)cn2C)cc1 [US20250289799, Example 169] | 0.8
21 | COc1cnc(-c2ccccc2C2CC2)nc1NCc1ccc(-n2nc(C(F)(F)F)cc2C)cc1 [US20250289799, Example 170] | 2.9
22 | COc1cc(-c2nc(C(F)(F)F)cn2C)ccc1CNc1nc(-c2ccccc2C2CC2)ncc1OC [US20250289799, Example 171] | 2.3
23 | COc1cc(CNc2nc(-c3ccccc3C3CC3)ncc2OC)ccc1-c1nc(C(F)(F)F)cn1C [US20250289799, Example 172] | 12
24 | Cn1cc(C(F)(F)F)nc1-c1ccc(CNc2nc(-c3ccccc3C3CC3)nc3ccoc23)cc1 [US20250289799, Example 173] | 1
25 | Cc1cc(C(F)(F)F)nn1-c1ccc(CNc2nc(-c3ccccc3C3CC3)nc3ccoc23)cc1 [US20250289799, Example 174] | 5.1
26 | COc1cc(-c2nc(C(F)(F)F)cn2C)ccc1CNc1nc(-c2ccccc2C2CC2)nc2ccoc12 [US20250289799, Example 175] | 3.6
27 | COc1cc(CNc2nc(-c3ccccc3C3CC3)nc3ccoc23)ccc1-c1nc(C(F)(F)F)cn1C [US20250289799, Example 176] | 4
28 | COc1cnc(-c2c(OC)cnn2C(C)C)nc1N(C)CC1CCN(c2ccccn2)CC1 [US20250289799, Example 177] | 75
29 | COc1cnc(-c2c(OC)cnn2C(C)C)nc1NCc1ccc(-c2ccccn2)cc1 [US20250289799, Example 178] | 110
30 | COc1cnc(-c2c(OC)cnn2C(C)C)nc1NCC1CCN(c2nc(C(F)(F)F)cn2C)CC1 [US20250289799, Example 179] | 56
31 | COc1cnc(-c2c(OC)cnn2C(C)C)nc1NCc1ccc(-c2nc(C(F)(F)F)cn2C)cc1 [US20250289799, Example 180] | 15
32 | COc1cnn(C(C)C)c1-c1nc(NCc2ccc(-c3ccccn3)cc2)c2occc2n1 [US20250289799, Example 181] | 27
33 | COc1cnn(C(C)C)c1-c1nc(NCc2ccc(-n3nc(C(F)(F)F)cc3C)cc2)c2occc2n1 [US20250289799, Example 182] | 7.4
34 | COc1cnc(-c2c(OC)cnn2C2CC2)nc1NCc1ccc(-c2ccccn2)cc1 [US20250289799, Example 183] | 164
35 | COc1cnc(-c2c(OC)cnn2C2CC2)nc1NCC1CCN(c2nc(C(F)(F)F)cn2C)CC1 [US20250289799, Example 184] | 94
36 | COc1cnn(C2CC2)c1-c1ncc(OC(F)F)c(NCc2ccc(-c3nc(C(F)(F)F)cn3C)cc2)n1 [US20250289799, Example 185] | 9.8
37 | COc1cnc(-c2c(C)noc2C(C)C)nc1N(C)CC1CCN(c2ccccn2)CC1 [US20250289799, Example 186] | 66
38 | COc1cnc(-c2c(C)noc2C(C)C)nc1NCC1CCN(c2nc(C(F)(F)F)cn2C)CC1 [US20250289799, Example 187] | 23.5
39 | COc1cnc(-c2c(C)noc2C(C)C)nc1NCc1ccc(-c2nc(C(F)(F)F)cn2C)cc1 [US20250289799, Example 188] | 15
40 | Cc1noc(C(C)C)c1-c1nc(NCc2ccc(-c3ccccn3)cc2)c2occc2n1 [US20250289799, Example 189] | 16
41 | Cc1noc(C(C)C)c1-c1ncc(OC(F)F)c(NCc2ccc(-c3nc(C(F)(F)F)cn3C)cc2)n1 [US20250289799, Example 190] | 33
42 | COc1cnc(-c2c(Cl)cnn2C2CC2)nc1N(C)Cc1ccc(-c2nc(C(F)(F)F)cn2C)cc1 [US20250289799, Example 191] | 4.3
43 | COc1cnc(-c2c(Cl)cnn2C2CC2)nc1NCc1ccc(-c2nc(C(F)(F)F)cn2C)cc1 [US20250289799, Example 192] | 3.8
44 | COc1cnc(-c2cncnc2C2CC2)nc1N(C)Cc1ccc(-c2nc(C(F)(F)F)cn2C)cc1 [US20250289799, Example 193] | 87
